Results published in patent publication US12661324B2, “Solid dispersion, pharmaceutical preparations, preparation method, and application thereof” (ASCENTAGE PHARMA (SUZHOU) CO., LTD., priority 2020, dated 2026).
Converted amounts (≈) assume the structure as drawn.

Columns and labels:
[1] = Pharmacokinetic test in mice (Effect Example 3); type: in vivo; conditions: mouse, plasma, po, male mice, single gavage
Method: Four groups of male mice were randomly divided into two groups: test article 1 (solid dispersion prepared in Example 7 and suspension prepared with reverse osmosis water as solvent), the dosages are 25 mg/kg and 100 mg/kg respectively; test article 2 (API prepared in example 1 and suspension prepared with aqueous solution containing 0.2% HPMC-E5), the dosages are 25 mg/kg and 100 mg/kg, respectively. The animals in each group were administered by single gavage.
All animals collected blood samples and separated plasma at 0.087 h, 0.25 h, 0.5 h, 1 h, 2 h, 4 h, 6 h, 8 h and 24 h after administration. All plasma samples were analyzed by LC-MS/Ms. the lower limit of quantification of the method was 10 ng/ml. The plasma concentration data were analyzed by non-compartmental model method (NCA) of metabolic kinetic data analysis software winnonlin8.0.0.3176, and the pharmacokinetic parameters were calculated to evaluate the kinetic characteristics of API in animals after administration.

[2] = Drug dissolution test, rotating basket method, 0.2% SDS solution; type: physicochemical; conditions: 500 ml, 100 rpm
Method: Drug dissolution test was performed on the solid dispersion (rotating basket method, 0.2% SDS solution, 500 ml, 100 rpm). […] Under the same conditions, the drug dissolution of API (compound prepared in example 1) in 10 min, 30 min and 60 min were 7%, 13% and 22% respectively.

[3] = Equilibrium solubility test; type: physicochemical; conditions: 37 °C, thermodynamic from solid
Method: After 2 and 24 hours of high-speed centrifugation, the supernatant was taken, and the concentration of API in the supernatant was determined by high-performance liquid chromatography.

[4] = Solubility in aqueous medium pH 1-7; type: physicochemical; conditions: aqueous buffer, thermodynamic from solid, 37° C. for 24 hours, acidic or neutral medium pH 1-7
Excerpt: The compound of formula (I) is usually in crystalline form and has very low solubility. […] Even after high humidity (60%) and long-term (12 months) storage, the compound of formula (1) in the solid dispersion of the invention will not be transformed or degraded.

## O=C(NS(=O)(=O)c1ccc(NC[C@H]2COCCO2)c([N+](=O)[O-])c1)c1ccc(N2CCN(CC3=C(c4ccc(Cl)cc4)CC4(CCC4)CC3)CC2)cc1Oc1cnc2[nH]ccc2c1 [API, 4-{4-{[6-(4-Chloro-phenyl)-spiro[3,5]nonane-6-ene-7-yl]methyl}-piperazine-1-yl}-N-{{3-nitro-4-[((2S)-[1,4]dioxane-2-ylmethyl)-amino]phenyl}sulfonyl}-2-(1H-pyrrolo[2,3-b]pyridin-5-yloxy)-benzamide]
[1]; 25 mg/kg
  AUC(0-inf): 637 ng·h/mL
  AUC(0-t): 384 ng·h/mL
  Cmax: 82.2 ng/mL
  Tmax: 3.33 h
  half-life: 7.41 h
[1]; 100 mg/kg
  AUC(0-inf): 1120 ng·h/mL
  AUC(0-t): 1100 ng·h/mL
  Cmax: 105 ng/mL
  Tmax: 1 h
  half-life: 3.7 h
[2]; 10 min
  drug dissolution: 7%
[2]; 30 min
  drug dissolution: 13%
[2]; 60 min
  drug dissolution: 22%
[3]; FaSSIF
  solubility at 2 h: 1.3 µg/mL (≈ 1.47 µM)
  solubility at 24 h: 0.6 µg/mL (≈ 0.68 µM)
[3]; FeSSIF
  solubility at 2 h: 2.5 µg/mL (≈ 2.83 µM)
  solubility at 24 h: 0.5 µg/mL (≈ 0.567 µM)

## O=C(NS(=O)(=O)c1ccc(NC[C@H]2COCCO2)c([N+](=O)[O-])c1)c1ccc(N2CCN(CC3=C(c4ccc(Cl)cc4)CC4(CCC4)CC3)CC2)cc1Oc1cnc2[nH]ccc2c1 [compound of formula (I), 4-{4-{[6-(4-Chloro-phenyl)-spiro[3,5]nonane-6-ene-7-yl]methyl}-piperazine-1-yl}-N-{{3-nitro-4-[((2S)-[1,4]dioxane-2-ylmethyl)-amino]phenyl}sulfonyl}-2-(1H-pyrrolo[2,3-b]pyridin-5-yloxy)-benzamide]
[4]
  solubility at 24 h: 0.3 to 0.6 µg/mL
